Data reported in patent publication US10189803B2, “Synthesis of therapeutic and diagnostic drugs centered on regioselective and stereoselective ring opening of aziridinium ions” (ILLINOIS INSTITUTE OF TECHNOLOGY, priority 2008, dated 2019).

Assays:
[1] = Complexation kinetics with Bi(III), Arsenazo III (AAIII) spectroscopic competing reaction; type: physicochemical; settings: pH 4.0 (0.15M NH4OAc), 25° C., 1 hour
Protocol: The novel ligand DEPA was further evaluated for the complexation kinetics with other metals. The complexation kinetics of the ligand DEPA with Bi(III) was determined using a well-known spectroscopic competing reaction with AAIII according to a modification of the reported procedure (Kodama, M.; Koike, T.; Mahatma, A. B.; Kimura, E. Inorg. Chem. 1991, 30, 1270). AAIII is known to form a weak complex with many different metals, which produce a UV absorbance maximum between ˜652 nm. However, uncomplexed AAIII absorb little at this wavelength. When introduced to a solution containing the AAIII-metal complex, a chelate can compete with AAIII for the metal. The idea is that if the chelate is more capable of binding the metal than AAIII, the metal will dissociate from the AAIII complex and form a complex with the chelate leading to the decrease in the absorbance at the wavelength. The absorbance (A652) for AAIII-Bi(III) complex was measured in the absence and in the presence of the ligands over 1 hour at rt. The complexation kinetics of Bi(III) was determined at pH 4.0 as hydrolysis occurs at a higher pH. The complexation result of the new ligands studied herein was compared to that of DOTA.
General procedure for complexation kinetics using AAIII. The kinetics experiments were performed as previously described. […]

[2] = T1 relaxivity of Gd(III) complexes (Bruker mq60 NMR analyzer); type: physicochemical; settings: aqueous Gd(III) complexes, ~pH 7, 60 MHz
Protocol: Gd(NE3TA) and Gd(NE3TA-Bn) were synthesized by reacting GdCl3 with NE3TA and NE3TA-Bn, respectively. NE3TA or NE3TA-Bn were mixed with GdCl3 in a molar ratio of 1 to 0.9, and the resulting mixture at pH 7 was heated to 90° C. and stirred until no free Gd(III) ions were detected using an ArsenazoIII (AAIII) assay. Relaxivity of the aqueous […] complexes (pH 7) was measured on a Bruker MQ60 NMR analyzer, and the concentration of the Gd(III) complexes was measured by ICP-MS. […] NE3TA was successfully conjugated with the most common bile acid, cholic acid (FIG. 41).
(§1) Relaxivity Measurements. Relaxivity measurements were acquired by taking the slope of a plot of 1/T1 (s^−1) versus concentration (mM). The longitudinal water proton relaxation times (T1) were determined using a Bruker mq60 NMR (Bruker Canada, Milton, ON, Canada) analyzer operating at 59.97 MHz and 37° C. The agent was added to Millipore water and serially diluted by 0.5 to give a series of 5 concentrations (500 μL total volume) for each relaxivity trial. The T1 was determined using an inversion recovery pulse sequence with 10 different pulse separations per sample, 4 repetitions per echo time, phase cycling, and a recycle delay that is ≥5 times the T1 of each given sample. All curves were fit using a monoexponential curve fitting formula.
Relaxivity of the aqueous Gd(III) complexes (˜pH 7) were measured on a Bruker MQ60 NMR analyzer, and the concentration of the Gd(III) complexes were measured by ICP-MS. […] As mentioned above, the on and off binding to Gd(III) of one of the pendant coordinates would have resulted enhanced relaxivity of Gd(C-NETA) compared to Gd(C-DOTA). Among the evaluated Gd(III) complexes, Gd(C-NE3TA) gives the highest T1 relaxivity at 60 MHz, probably due to increase in q. The relaxation rates for the Gd(III) chelates are dominated by the inner-sphere dipolar coupling between the coordinated water molecule and the paramagnetic Gd(III). The measured relaxivities arise from the exchange between the coordinated water molecule and the surrounding water molecules in solution. […] No indication of Gd(III) dissociation is evident from the relaxivity data, which is in agreement with the in vitro serum stability and in vivo biodistribution studies.
as §1, with “The T1 relaxivity was determined” for “The T1 was determined”

Hela cells [3] = assay: Antiproliferative activity, MTS assay, HeLa cells; type: cell-based, Human; settings: for IC50: 72 h incubation, MTS; for cytotoxicity in HeLa cells over a series of concentrations (in words): FIG. 18
Protocol: Cell culture Human cervix HeLa cell line was obtained from ATCC (Rockville, Md.) and cultured in minimum essential medium (MEM) with L-glutamine (2 mM), Earle's BSS and sodium bicarbonate (1.5 g/L), supplemented with 10% fetal bovine serum (FBS), non-essential amino acids (0.1 mM), sodium pyruvate (1 mM) and antibiotic/antimycotic solution in a humidified atmosphere with 5% CO2 at 37° C. […] Lung fibroblast MRC-5 cell line was obtained from ATCC (Rockville, Md.) and cultured in ATCC formulated EMEM, supplemented with 10% fetal bovine serum (FBS) in a humidified atmosphere with 5% CO2 at 37° C.
(§2) Antiproliferative Activity. Cells were seeded onto 96-well plate at density of 2,000 cells for Hela cells or 5,000 cells for HT29 cells or 5,000 cells for MRC-5 per well in 0.1 mL complete medium and allowed to attach for 24 h. Varying concentrations of the test compounds in the final volume of 0.1 mL complete medium were then added in at least five series dilutions and incubated for 72 h. To measure cell proliferation, the Cell Titer 96 aqueous nonreactive cell proliferation assay (Promega Life Sciences, Madison, Wis.) was used according to the manufacturer's instructions. Briefly, MTS (2 mg/mL) and PMS (0.92 mg/ml) were mixed in a ratio of 20:1. An aliquot (20 μL) of the MTS/PMS mixture was added into each well, and the plate was incubated for 3 h at 37° C. Optical absorbance at 490 nm was then recorded with an enzyme-linked immunosorbent assay (ELISA) microtiter plate reader (Biotek). Each experiment was done at least in triplicate. Antiproliferative activity of the test compounds was expressed as the fraction of optical densities of treated the cells relative to the untreated solvent controls.^31 The data were plotted in GraphPad Prizm 3.0. Nonlinear regression analysis was used to determine IC50 values.
Cell culture. Human cervix HeLa cell line was obtained from ATCC (Rockville, Md.) and cultured in minimum essential medium (MEM) with L-glutamine (2 mM), Earle's BSS and sodium bicarbonate (1.5 g/L), supplemented with 10% fetal bovine serum (FBS), non-essential amino acids (0.1 mM), sodium pyruvate (1 mM) and antibiotic/antimycotic solution in a humidified atmosphere with 5% CO2 at 37° C.
as §2, with “activity.” for “Activity.”, “cells” for “cells or 5,000 cells for MRC-5”, “controls.” for “controls.^31”

HT29 cells = assay: Antiproliferative activity, MTS assay, HT29 cells; type: cell-based, Human; settings: 72 h incubation
Procedure, shortened: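 HeLa cells (2,000/well) and HT29 cells (5,000/well) were allowed to attach for 24 h, then exposed to at least five compound dilutions for 72 h. Viability was read by MTS/PMS reduction (3 h, 37° C, A490). IC50 was obtained by nonlinear regression of OD as a fraction of solvent control, at least in triplicate.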

MRC-5 cells = assay: Antiproliferative activity in non-cancer lung fibroblast MRC-5 cells; type: cell-based, human; settings: FIG. 20
Protocol: The cytotoxicity of the chelators in the cancer cells was compared to their cytotoxicities in non-cancer cells using human lung fibroblast cell (MRC-5).
Cell culture Human cervix HeLa cell line was obtained from ATCC (Rockville, Md.) and cultured in minimum essential medium (MEM) with L-glutamine (2 mM), Earle's BSS and sodium bicarbonate (1.5 g/L), supplemented with 10% fetal bovine serum (FBS), non-essential amino acids (0.1 mM), sodium pyruvate (1 mM) and antibiotic/antimycotic solution in a humidified atmosphere with 5% CO2 at 37° C. Human colon cancer cell line HT29 was maintained in a humidified atmosphere with 5% CO2 at 37° C. in RPMI-1640 medium, containing 10% FBS with L-glutamine and antibiotic/antimycotic. Lung fibroblast MRC-5 cell line was obtained from ATCC (Rockville, Md.) and cultured in ATCC formulated EMEM, supplemented with 10% fetal bovine serum (FBS) in a humidified atmosphere with 5% CO2 at 37° C.
Antiproliferative Activity. […] Optical absorbance at 490 nm was then recorded with an enzyme-linked immunosorbent assay (ELISA) microtiter plate reader (Biotek). […] Antiproliferative activity of the test compounds was expressed as the fraction of optical densities of treated the cells relative to the untreated solvent controls.^31 The data were plotted in GraphPad Prizm 3.0. […]

Hela cells [4] = assay: Iron saturation experiment, Hela cell growth (MTS); type: cell-based, Human; settings: for effect on Hela cells saturated with Fe(III)-citrate (in words): chelator 50 μM, Fe(III)-citrate 50 μM
Protocol: Cytotoxicity of the new chelators was measured in the HeLa and HT29 cancer cells and compared to that of the clinically used iron chelators DFO and DTPA. […] The preliminary cell culture experiments were performed to see ifNETA is an effective cytotoxic agent. […] In order to investigate the effect of the chelators on the cellular growth, the Hela cancer cells saturated with Fe(III)-citrate (50 μM) were incubated with each of the chelators (50 μM).
Iron Saturation Experiment Hela Cells were inoculated onto 96-well plates at density of 2,000 per well in 0.1 mL complete medium and incubated for 24 h. […] Control samples containing no ferric citriate were also tested. […] After the incubation, cells proliferation rates were evaluated by MTS assay.

[5] = Complexation kinetics with Lu(III), AAIII assay; type: physicochemical
Protocol: In summary, the novel decadentate ligand DEPA having both macrocyclic and acyclic metal binding moieties was efficiently prepared.
General procedure for complexation kinetics using AAIII. The kinetics experiments were performed as previously described. Ultrapure ammonium acetate (Aldrich, #431311) and hydrochloric acid solution (J. T. Baker, #JT6900-5) were purchased and used as received. All buffer solutions were prepared using deionized water (Milli-Q®, 18 MΩ). Metal-free stock solutions of all NH4OAc buffers (0.15 M, pH 4 or pH 4.5) were prepared using Chelex-100 resin (100-200 mesh, Bio-Rad Lab, Hercules, Calif.). Chelex resin (5 g) was added into the butter solution (100 mL) and the mixture was shaken for 1 h in a shaker (Eberbach), stored in the refrigerator overnight, and filtered through a Corning filter system (430513, pore size […]). A 15 μM AAIII solution in 0.15 M NH4OAc (pH 4 or pH 4.5) were prepared by adding AAIII (5.82 mg) to the NH4OAc buffer (500 mL). A solution of Bi(III)-AAIII (7.5 μM) was freshly prepared by mixing AAIII solution (15 μM, 50 mL) in 0.15 M NH4OAc (pH 4) with Bi(III) atomic absorption standard solution (79 μL, 995 μg/mL). A solution of Lu(III)-AAIII (1.8 μM) was freshly prepared by mixing AAIII solution ([…], 50 mL) in 0.15 M NH4OAc buffer (pH 4.5) with Lu(III) atomic absorption standard solution (15.4 μL, 1014 μg/ml). […]

| SMILES | complexation with Bi(III) (absorbance at 652 nm vs time, in words) [1] | T1 relaxivity of Gd(III) complexes of bifunctional ligands [2] | IC50 (Hela cells [3]) | cytotoxicity in HeLa cells over a series of concentrations (in words) (Hela cells [3]) | IC50 (HT29 cells) | viability of normal MRC-5 cells compared to cancer cells (in words) (MRC-5 cells) | effect on Hela cells saturated with Fe(III)-citrate (in words) (Hela cells [4]) | complexation with Lu(III) (in words) [5] | HeLa cell survival (in words) (Hela cells [4]; free ligand 50 μM, no ferric citrate) |
| --- | --- | --- | --- | --- | --- | --- | --- | --- | --- |
| O=C(O)CN1CCN(CC(=O)O)CCN(CC(=O)O)CCN(CC(=O)O)CC1 [DOTA, reference compound] | sluggish complexation | 3.96 mM⁻¹ s⁻¹ | – | – | – | – | – | – | – |
| CC(=O)N(O)CCCCCNC(=O)CCC(=O)N(O)CCCCCNC(=O)CCC(=O)N(O)CCCCCN [DFO, desferoxamine, reference compound] | – | – | > 50 µM | not concentration-dependent | 36.1 ± 1.4 µM | little change in cell viability | modest increase in cell viability | – | – |
| O=C(O)CN1CCN(CCN(CC(=O)O)CC(=O)O)CCN(CC(=O)O)CCN(CC(=O)O)CC1 [DEPA, {7-[2-(Bis-carboxymethyl-amino)-ethyl]-4,10-bis-carboxymethyl-1,4,7,10-tetraazacyclo-dodec-1-yl}-acetic acid] | quite prompt and substantial binding | – | – | – | – | – | – | slow in binding | – |
| O=C(O)CN(CCN(CC(=O)O)CC(=O)O)CCN(CC(=O)O)CC(=O)O [DTPA, diethylenepentaacetic acid, reference compound] | – | – | 264 ± 36.2 µM | almost no cytotoxicity | 39.1 ± 4 µM | much enhanced viability of normal cells | almost no anti-proliferative activity | – | almost all HeLa cells incubated with DTPA (50 μM) survived |
